Data as given in patent publication US9499495B2, “Quinazolines and azaquinazolines as dual inhibitors of RAS/RAF/MEK/ERK and PI3K/AKT/PTEN/mTOR pathways” (Asana Biosciences, LLC, priority 2013, dated 2016).

How the values were obtained:
pERK in A375 cells = test: In Cell Western (ICW) assay, pERK in A375 cells; format: cell-based; conditions: Homo sapiens, A-375, 3 h treatment
Procedure, shortened: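 RKO or A375 cells were exposed to compounds for 3 h at 37 °C, then fixed and stained in-cell with antibodies to pERK1/2 (T202/Y204), pS6RP or pAKT T308, followed by a Eu-labelled secondary. Time-resolved fluorescence (340/615 nm) was normalized to Hoechst, and IC50 values were fitted sigmoidally against DMSO as 0% inhibition.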

RKO cells = test: XTT assay for cell viability, RKO cells; format: cell-based; conditions: Homo sapiens, 72 h
Procedure, shortened: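 RKO and A375 cells seeded at 1000-2000/well overnight, then exposed to compound for 72 h at 37° C., 5% CO2. XTT (1 mg/ml)/PMS (25 μM) added for 2-3 h; absorbance at 450 nm. Growth relative to DMSO control (100%); GI50 from sigmoidal dose-response fit.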

mTOR kinase = biological target: T1, mTOR kinase (Homo sapiens, UniProt P42345); test: mTOR kinase TR-FRET assay; format: biochemical
T1 construct: purchased Millipore, US
T1 sequence (P42345 1362-2549 limits assumed): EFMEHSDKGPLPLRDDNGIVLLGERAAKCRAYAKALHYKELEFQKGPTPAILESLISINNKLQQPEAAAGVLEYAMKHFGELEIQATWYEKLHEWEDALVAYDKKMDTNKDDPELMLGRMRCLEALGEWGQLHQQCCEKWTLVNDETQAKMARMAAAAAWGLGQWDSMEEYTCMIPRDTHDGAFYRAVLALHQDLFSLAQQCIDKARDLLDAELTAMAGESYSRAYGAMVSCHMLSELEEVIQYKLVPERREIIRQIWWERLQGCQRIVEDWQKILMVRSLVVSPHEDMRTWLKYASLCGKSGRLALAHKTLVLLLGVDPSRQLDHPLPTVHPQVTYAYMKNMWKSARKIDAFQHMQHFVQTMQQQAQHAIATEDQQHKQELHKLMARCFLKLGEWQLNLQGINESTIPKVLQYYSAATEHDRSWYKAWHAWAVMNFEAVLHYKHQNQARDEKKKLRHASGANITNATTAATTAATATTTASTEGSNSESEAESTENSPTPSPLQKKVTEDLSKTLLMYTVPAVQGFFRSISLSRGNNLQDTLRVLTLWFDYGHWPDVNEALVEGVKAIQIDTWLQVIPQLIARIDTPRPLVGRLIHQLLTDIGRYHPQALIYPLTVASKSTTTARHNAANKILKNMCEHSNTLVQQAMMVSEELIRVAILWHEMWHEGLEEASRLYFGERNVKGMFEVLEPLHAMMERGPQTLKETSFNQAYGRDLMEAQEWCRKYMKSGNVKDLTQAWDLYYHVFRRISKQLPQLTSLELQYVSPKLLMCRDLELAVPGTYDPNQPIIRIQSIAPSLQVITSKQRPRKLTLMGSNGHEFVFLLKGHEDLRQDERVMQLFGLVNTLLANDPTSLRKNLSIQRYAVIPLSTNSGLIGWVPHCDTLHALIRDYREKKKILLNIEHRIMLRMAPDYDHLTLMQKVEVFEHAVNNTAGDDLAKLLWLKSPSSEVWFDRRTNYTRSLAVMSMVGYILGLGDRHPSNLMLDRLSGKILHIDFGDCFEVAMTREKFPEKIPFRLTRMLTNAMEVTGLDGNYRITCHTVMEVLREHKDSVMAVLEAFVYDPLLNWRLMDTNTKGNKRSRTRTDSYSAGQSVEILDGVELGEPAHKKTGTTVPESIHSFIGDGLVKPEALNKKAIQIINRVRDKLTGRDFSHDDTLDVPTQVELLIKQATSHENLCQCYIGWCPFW
Procedure, shortened: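 TR-FRET with ULight-p70 S6K (Thr 389) peptide (50 nM) and 20 μM ATP in 50 mM HEPES pH 7.5, 1 mM EGTA, 3 mM MnCl2; compound pre-incubated with enzyme before substrate addition, reaction at rt, EDTA-stopped. Eu anti-phospho antibody read 665/615 nm; IC50 from sigmoidal dose-response fit.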

pS6RP in RKO cells = test: In Cell Western (ICW) assay, pS6RP in RKO cells; format: cell-based; conditions: Homo sapiens, 3 h treatment
Method: (§1) Cell lines A375, A2058 and RKO obtained from the ATCC as provided above, were grown, and after attaining ˜80% confluency were trypsinized, centrifuged and resuspended in fresh media. The cells were seeded at the specified density (20,000 to 50,000) in a 96-well format black-well clear bottom plate (Corning) and incubated overnight at 37° C. in a 5% CO2 incubator. The next day, compound dilutions of test compounds were prepared in 100% DMSO followed by dilutions in respective media. Treatment of test compounds was performed for 3 h at 37° C. in 5% CO2 incubator. Following 3 h drug treatment, the conditional media was discarded and the cells were washed once with cPBS (PBS containing 0.1% magnesium chloride hexahydrate and 0.1% anhydrous calcium chloride) and fixed with 4% paraformaldehyde in cPBS for 1 h at rt. After fixing, the cells were given three washes using cPBST (cPBS containing 0.1% Triton™ X-100 reagent) and then blocked using blocking solution (5% skimmed milk powder or 5% BSA prepared in cPBST) for 2 h at rt with shaking at 300 rpm. The cells were again washed thrice with cPBST and incubated with primary antibody phospho-p44/42 MAPK(Erk1/2)(Thr202/204) antibody (Cell Signaling, Catalog # 9101L), phospho S6 ribosomal protein (Cell Signaling, Catalog #4858L), phospho AKT (Thr 308) (Cell Signaling, Catalog #9275) or phospho AKT (Ser 473) (Cell Signaling, Catalog #4060L) in specified dilutions (1:500-1:2500), prepared in respective blocking solutions, in a racker overnight at 4° C. The next day, the cells were washed with 1× Delfia® wash buffer (4×1 wash) and incubated with secondary antibody (Delfia®-Eu-N1 labeled anti-rabbit antibody; PerkinElmer, Catalog #AD0105; dilutions: 1:2000 to 1:6000 in Delfia® assay buffer (PerkinElmer, Catalog #1244-111)) for 2 h at rt in the dark at 300 rpm. The cells were then given four washes with 1× Delfia® wash buffer and incubated with Wallac Delfia® Enhancement solution (100 μL; PerkinElmer, Catalog #1244-105) for 20 min at rt in the dark at 300 rpm. The fluorescence emission was then read at 615 nm with an excitation wavelength of 340 nm using a Victor V5 Fluorometer (Perkin Elmer, US). The cells were then washed once with 1×cPBS and incubated with 100 μL of 0.5 mg/mL of Hoechst 33258 dye prepared in cPBS and read at 460 nm with 355 nm excitation, thereby evaluating the correction factor.
(§2) The % inhibition for the test compounds of formula (I) (new chemical entities (NCEs)) was calculated keeping DMSO control as 0% and the IC50 values were determined using sigmoidal dose response curve fit in GraphPad Prism® v5 software.

pERK in RKO cells = test: In Cell Western (ICW) assay, pERK in RKO cells; format: cell-based; conditions: Homo sapiens, 3 h treatment
Method: as §1, §2

Structure (SMILES)	IC50 (pERK in A375 cells)	IC50 (RKO cells)	IC50 (mTOR kinase)	IC50 (pS6RP in RKO cells)	IC50 (pERK in RKO cells)
CCCS(=O)(=O)Nc1cccc(-c2ccc3nc(-c4cnc(N)nc4)nc(N4CCOCC4)c3n2)c1F [Example 7, N-(3-(2-(2-aminopyrimidin-5-yl)-4-morpholinopyrido[3,2-d]pyrimidin-6-yl)-2-fluorophenyl)propane-1-sulfonamide]	100 to 1000 nM	100 to 1000 nM	100 to 1000 nM	–	–
COc1cc2nc(-c3cnc(N)nc3)nc(N3CCOCC3)c2cc1-c1cccc(NS(=O)(=O)CCCF)c1F [Example 11, N-(3-(2-(2-aminopyrimidin-5-yl)-7-methoxy-4-morpholinoquinazolin-6-yl)-2-fluorophenyl)-3-fluoropropane-1-sulfonamide]	1 to 100 nM	100 to 1000 nM	1 to 100 nM	100 to 1000 nM	–
CNC(=O)Nc1ccc(-c2nc(N3CCOCC3)c3cc(-c4cccc(NS(=O)(=O)CCCF)c4F)cc(OC)c3n2)cn1 [Example 39, 3-fluoro-N-(2-fluoro-3-(8-methoxy-2-(6-(3-methylureido)pyridin-3-yl)-4-morpholinoquinazolin-6-yl)phenyl)propane-1-sulfonamide]	1 to 100 nM	–	1 to 100 nM	–	–
COc1cc(-c2cccc(NS(=O)(=O)CCCF)c2F)cc2c(N3CCOC[C@H]3C)nc(-c3cnc(N)nc3)nc12 [Example 43, (R)-N-(3-(2-(2-aminopyrimidin-5-yl)-8-methoxy-4-(3-methylmorpholino)quinazolin-6-yl)-2-fluorophenyl)-3-fluoropropane-1-sulfonamide]	1 to 100 nM	100 to 1000 nM	1 to 100 nM	100 to 1000 nM	1 to 100 nM
Nc1ncc(-c2nc(N3CCOCC3)c3cc(-c4cccc(NS(=O)(=O)CCCF)c4F)cc(N4CCOCC4)c3n2)cn1 [Example 69, N-(3-(2-(2-aminopyrimidin-5-yl)-4,8-dimorpholinoquinazolin-6-yl)-2-fluorophenyl)-3-fluoropropane-1-sulfonamide]	1 to 100 nM	–	1 to 100 nM	–	–
CCCS(=O)(=O)Nc1cccc(-c2ccc3nc(-c4ccc(N)nc4)nc(N4CCOCC4)c3n2)c1F [Example 86, N-(3-(2-(6-aminopyridin-3-yl)-4-morpholinopyrido[3,2-d]pyrimidin-6-yl)-2-fluorophenyl)propane-1-sulfonamide]	100 to 1000 nM	100 to 1000 nM	1 to 100 nM	–	–
Cc1cc(-c2nc(N3CCOCC3)c3nc(-c4cccc(NS(=O)(=O)CCCF)c4F)ccc3n2)cnc1N [Example 90, N-(3-(2-(6-amino-5-methylpyridin-3-yl)-4-morpholinopyrido[3,2-d]pyrimidin-6-yl)-2-fluorophenyl)-3-fluoropropane-1-sulfonamide]	100 to 1000 nM	–	100 to 1000 nM	–	–
Nc1ccc(-c2nc(N3CCOCC3)c3nc(-c4cccc(NS(=O)(=O)c5c(F)cccc5F)c4F)ccc3n2)cn1 [Example 95, N-(3-(2-(6-aminopyridin-3-yl)-4-morpholinopyrido[3,2-d]pyrimidin-6-yl)-2-fluorophenyl)-2,6-difluorobenzenesulfonamide]	100 to 1000 nM	1000 to 10000 nM	1 to 100 nM	–	–
C[C@@H]1COCCN1c1nc(-c2ccc(N)nc2)nc2ccc(-c3cccc(NS(=O)(=O)CCCF)c3F)nc12 [Example 96, (R)-N-(3-(2-(6-aminopyridin-3-yl)-4-(3-methylmorpholino)pyrido[3,2-d]pyrimidin-6-yl)-2-fluorophenyl)-3-fluoropropane-1-sulfonamide]	1 to 100 nM	100 to 1000 nM	100 to 1000 nM	100 to 1000 nM	1 to 100 nM
C[C@@H]1COCCN1c1nc(-c2cnc(N)nc2)nc2ccc(-c3cccc(NS(=O)(=O)CCCF)c3F)nc12 [Example 97, (R)-N-(3-(2-(2-aminopyrimidin-5-yl)-4-(3-methylmorpholino)pyrido[3,2-d]pyrimidin-6-yl)-2-fluorophenyl)-3-fluoropropane-1-sulfonamide]	1 to 100 nM	100 to 1000 nM	100 to 1000 nM	100 to 1000 nM	–
O=S(=O)(CCCF)Nc1cccc(-c2ccc3nc(-c4ccc(NCCO)nc4)nc(N4CCOCC4)c3n2)c1F [Example 99, 3-fluoro-N-(2-fluoro-3-(2-(6-((2-hydroxyethyl)amino)pyridin-3-yl)-4-morpholinopyrido[3,2-d]pyrimidin-6-yl)phenyl)propane-1-sulfonamide]	1 to 100 nM	100 to 1000 nM	1 to 100 nM	100 to 1000 nM	1 to 100 nM
Nc1cc(F)c(-c2nc(N3CCOCC3)c3nc(-c4cccc(NS(=O)(=O)CCCF)c4F)ccc3n2)cn1 [Example 102, N-(3-(2-(6-amino-4-fluoropyridin-3-yl)-4-morpholinopyrido[3,2-d]pyrimidin-6-yl)-2-fluorophenyl)-3-fluoropropane-1-sulfonamide]	100 to 1000 nM	100 to 1000 nM	1 to 100 nM	100 to 1000 nM	100 to 1000 nM
Nc1cc(C(F)(F)F)c(-c2nc(N3CCOCC3)c3nc(-c4cccc(NS(=O)(=O)c5c(F)cccc5F)c4F)ccc3n2)cn1 [Example 106, N-(3-(2-(6-amino-4-(trifluoromethyl)pyridin-3-yl)-4-morpholinopyrido[3,2-d]pyrimidin-6-yl)-2-fluorophenyl)-2,6-difluorobenzenesulfonamide]	1000 to 10000 nM	–	1 to 100 nM	–	–
O=S(=O)(CCCF)Nc1cccc(-c2ccc3nc(-c4ccc(NCCCO)nc4)nc(N4CCOCC4)c3n2)c1F [Example 111, 3-fluoro-N-(2-fluoro-3-(2-(6-((3-hydroxypropyl)amino)pyridin-3-yl)-4-morpholinopyrido[3,2-d]pyrimidin-6-yl)phenyl)propane-1-sulfonamide]	100 to 1000 nM	–	1 to 100 nM	–	–
Cc1cc(-c2cccc(NS(=O)(=O)CCCF)c2F)cc2c(N3CCOCC3)nc(-c3cnc(N)nc3)nc12 [Example 116, N-(3-(2-(2-aminopyrimidin-5-yl)-8-methyl-4-morpholinoquinazolin-6-yl)-2-fluorophenyl)-3-fluoropropane-1-sulfonamide]	1 to 100 nM	–	100 to 1000 nM	–	–
C[C@H]1COCCN1c1nc(-c2cnc(N)cc2F)nc2ccc(-c3cccc(NS(=O)(=O)CCCF)c3F)nc12 [Example 129, (S)-N-(3-(2-(6-amino-4-fluoropyridin-3-yl)-4-(3-methylmorpholino)pyrido[3,2-d]pyrimidin-6-yl)-2-fIuorophenyl)-3-fluoropropane-1-sulfonamide]	100 to 1000 nM	–	1 to 100 nM	–	–
COc1cc(-c2cccc(NS(=O)(=O)CCCF)c2F)cc2c(N3CCOC[C@H]3C)nc(-c3cnc(N)c(F)c3)nc12 [Example 134, (R)-N-(3-(2-(6-amino-5-fluoropyridin-3-yl)-8-methoxy-4-(3-methylmorpholino)quinazolin-6-yl)-2-fluorophenyl)-3-fluoropropane-1-sulfonamide]	1 to 100 nM	100 to 1000 nM	1 to 100 nM	1 to 100 nM	1 to 100 nM
COc1cc(-c2cccc(NS(=O)(=O)CCCF)c2F)cc2c(N3CCOC[C@H]3C)nc(-c3cnc(N)cc3F)nc12 [Example 135, (R)-N-(3-(2-(6-amino-4-fluoropyridin-3-yl)-8-methoxy-4-(3-methylmorpholino)quinazolin-6-yl)-2-fluorophenyl)-3-fluoropropane-1-sulfonamide]	1 to 100 nM	100 to 1000 nM	1 to 100 nM	100 to 1000 nM	1 to 100 nM
